Peptide text beside a SMILES is read from it.
Experiments:
[1] = system: P388 tumor cells (murine lymphocytic leukemia cell line); assay: P388 in vivo tumor model (ascites, intraperitoneal implant); design: species or system mice; details: Q4Dx3, 1
Experimental: The P388 tumor model employs a murine lymphocytic leukemia cell line (See Schabel et al., Pharmac. Ther. A, 1:411-435). The P388 tumor cells used in this invention, were harvested from donor mice by peritoneal lavage at day 7 post transplant. 1×10^6 P388 tumor cells were then implanted intraperitoneally in a volume of 0.5 ml in mice.
A typical dosing regimen includes initiation of treatment approximately one day post transplant followed by treatment on days 5 and 9 post transplant. Generally the compounds of Formula I are administered intravenously (i.v.) and the paclitaxel, taxotere or modified taxane or taxoid analog is administered intraperitoneally (i.p.).
Therapeutic results of the combinations of the invention against P388 cells, are presented in terms of increase in lifespan reflected by the relative median survival time (MST) of treated (T) versus control (C) group (survival period for untreated mice is generally in the range of 11 to 13 days) and is represented as %T/C values. According to the National Cancer Institute guidelines a %T/C in the range or 128-190% indicates a drug with moderate to good activity. In addition, the Net log Cell Kill is used to compare efficacy of different schedules and combinations, and is calculated as follows: [formula]
Doubling Time=time required for control tumors to double once (0.4 days)
T and C=the median survival time (days) for the control (C) and treated (T) mice.
Duration of treatment with drug 0.332=Derived constant
1×10^6 P388 tumor cells were transplanted intraperitoneally in a volume of 0.5 ml in mice. Treatment was initiated approximately 1 day later followed by treatment on both day 5 and day 9, post transplant. Compound (xvii) was administered IV while paclitaxel was administered IP. […] The dosing was sequential with compound (xvii) being administered first followed by paclitaxel one hour later.

[2] = system: LX-1 human lung tumor xenograft; assay: LX-1 human tumor xenograft model; assay type: in vivo, human (xenograft in athymic nude mice); details: Q2Dx3, 5,12,19
Experimental: (§1) Human tumors from lung (LX-1), colon (CX-1) and prostate (PC-3) which had been grown in athymic nude mice were transplanted (xenografted) into new recipient mice, as is well known in the art. The transplanted tumor fragments were approximately 50 mg in size. The day of transplantation was designated as day 0. The combination therapy of the present invention was evaluated for anti-tumor efficacy following administration to the xenograft-bearing mice.
(§2) Combination therapy was accomplished by intravenous administration of both drugs. […] In other words, treatment consisted of 3 cycles, starting on days 5, 12 and 19 post tumor implantation. One cycle of treatment consisted of treatment every other day for a total of three times.
(§3) Tumor diameters and body weights were measured twice weekly. Tumor volumes were calculated using the diameters measured with Vernier calipers, and the formula:
(§4) (length×width^2)/2=mg of tumor weight
(§5) Mean tumor weights (MTW) were calculated for each treatment group, and T/C values determined for each group relative to the untreated control tumors.
(§6) Results are also presented as Net log Cell Kill and are calculated as follows: [formula]
(§7) T and C=The median days required for the control and treated tumors to reach a specified tumor size, in this instance 2000 mm^3.
(§8) Doubling Time=Time required for control tumors to double in size.
(§9) The Q2dx3; 5, 12 and 19 dosing regimen described above was used in this example. Paclitaxel was administered IV one hour after Compound (xvii) was administered IV.

[3] = system: CX-1 human colon tumor xenograft; assay: CX-1 human tumor xenograft model; assay type: in vivo, human (xenograft in athymic nude mice); details: Q2Dx3, 5,12,19
Experimental: as §1, §2, §3, §4, §5, §6, §7, §8, §9

[4] = system: PC-3 human prostate tumor xenograft; assay: PC-3 human tumor xenograft model; assay type: in vivo, human (xenograft in athymic nude mice); details: Q2Dx3, 5,12,19; for MTW d35 % T/C: mean tumor weight day 35; for R[…]: of 6 animals
Experimental: as §1, §2, §3, §4, §5, §6, §7, §8
The Q2dx3; 5, 12 and 19 dosing regimen described above was used in this example. Paclitaxel was administered IP one hour after Compound (xvii) was administered IV. The optimal single dose of both paclitaxel and Compound (xvii) was not determined.

[5] = system: National Cancer Institute's P388 lymphocytic leukemia cell line; details: cited from earlier work
[6] = cited from earlier work
[7] = paclitaxel 10 mg/kg IV alone, of 6 animals

CC(C)[C@H](NC(=O)[C@H](C(C)C)N(C)C)C(=O)N(C)[C@H](C(=O)N1CCC[C@H]1C(=O)N1CCC[C@H]1C(=O)NCc1ccccc1)C(C)C [Compound (xvii)] (HELM PEPTIDE1{[CC(C)[C@@H](C(=O)[*:2])N(C)C].V.[meV].P.P.[c1ccc(CN[*:1])cc1]}$$$$V2.0)
% Toxic Death ([1]; (xvii) 20 mg/kg IV alone): 0%
% Toxic Death ([1]; (xvii) 40 mg/kg IV alone): 0%
% Toxic Death ([1]; (xvii) 60 mg/kg IV alone): 0%
% Toxic Death ([2]; (xvii) 7.5 mg/kg IV alone): 0%
% Toxic Death ([2]; (xvii) 15 mg/kg IV alone): 0%
% Toxic Death ([2]; (xvii) 25 mg/kg IV alone): 0%
% Toxic Death ([3]; (xvii) 25 mg/kg IV alone): 83%
% Toxic Death ([4]; (xvii) 30 mg/kg IV alone): 33%

CC(=O)O[C@H]1C(=O)[C@@]2(C)[C@H]([C@H](OC(=O)c3ccccc3)[C@]3(O)C[C@H](OC(=O)[C@H](O)[C@@H](NC(=O)c4ccccc4)c4ccccc4)C(C)=C1C3(C)C)[C@]1(OC(C)=O)CO[C@@H]1C[C@@H]2O [Paclitaxel]
% T/C (median survival time treated vs control) ([1]; paclitaxel 10 mg/kg IP alone): 183%
% Toxic Death ([1]; paclitaxel 10 mg/kg IP alone): 0%
Net Log Cell Kill ([1]; paclitaxel 10 mg/kg IP alone): 1.33
% 60 Day Cures ([1]; paclitaxel 20 mg/kg IP alone): 4%
% T/C (median survival time treated vs control) ([1]; paclitaxel 20 mg/kg IP alone): 175%
% Toxic Death ([1]; paclitaxel 20 mg/kg IP alone): 0%
Net Log Cell Kill ([1]; paclitaxel 20 mg/kg IP alone): 0.66
% 60 Day Cures ([1]; paclitaxel 30 mg/kg IP alone): 3%
% T/C (median survival time treated vs control) ([1]; paclitaxel 30 mg/kg IP alone): 204%
% Toxic Death ([1]; paclitaxel 30 mg/kg IP alone): 8%
Net Log Cell Kill ([1]; paclitaxel 30 mg/kg IP alone): 2.99
% Toxic Death ([2]; paclitaxel 10 mg/kg IV alone): 0%
Net Log Cell Kill ([2]; paclitaxel 10 mg/kg IV alone): −0.374
MTW d27 % T/C ([2]; paclitaxel 10 mg/kg IV alone, mean tumor weight day 27): 10.5%
R[…] [2, 7]: 2
Net Log Cell Kill ([3]; paclitaxel 10 mg/kg IV alone): −0.124
MTW d55 % T/C ([3]; paclitaxel 10 mg/kg IV alone, mean tumor weight day 55): 38.12%
R[…] [3, 7]: 2
% Toxic Death ([4]; paclitaxel 10 mg/kg IP alone): 0%
Net Log Cell Kill ([4]; paclitaxel 10 mg/kg IP alone): −0.672
MTW d35 % T/C ([4]; paclitaxel 10 mg/kg IP alone): 55.12%
R[…] ([4]; paclitaxel 10 mg/kg IP alone): 2
% Toxic Death ([4]; paclitaxel 20 mg/kg IP alone): 0%
Net Log Cell Kill ([4]; paclitaxel 20 mg/kg IP alone): 1.98
MTW d35 % T/C ([4]; paclitaxel 20 mg/kg IP alone): 2.86%
% Toxic Death ([4]; paclitaxel 30 mg/kg IP alone): 17%
Net Log Cell Kill ([4]; paclitaxel 30 mg/kg IP alone): toxic
MTW d35 % T/C ([4]; paclitaxel 30 mg/kg IP alone): 2%
R[…] ([4]; paclitaxel 30 mg/kg IP alone): 5

Dolastatin-15
inhibition of cell growth (in words) [5]: markedly inhibits the growth
aqueous solubility (in words) [6]: poor aqueous solubility
